Laboratory results: article PMC3090687 (Journal of medicinal chemistry, 2011)

Experiment: in vivo pharmacokinetics in mice, intravenous and oral
Set-up: species or system mouse

Row | SMILES | improvement of bioavailability compared to compound 1 (oral, comparison with ref 22) | oral bioavailability, in words (oral administration)
1 | Nc1ccc(-c2ccc3ncc4ccc(=O)n(-c5cccc(C(F)(F)F)c5)c4c3c2)cn1 [Compound 3, 9-(6-aminopyridin-3-yl)-1-(3-(trifluoromethyl)phenyl)benzo[h][1,6]naphthyridin-2(1H)-one] | approximately 10 fold | 
2 | CCC(=O)N1CCN(c2ccc(-n3c(=O)ccc4cnc5ccc(-c6cnc7ccccc7c6)cc5c43)cc2C(F)(F)F)CC1 [Compound 1, 1-(4-(4-propionylpiperazin-1-yl)-3-(trifluoromethyl)phenyl)-9-(quinolin-3-yl)benzo[h][1,6]naphthyridin-2(1H)-one] |  | very limited oral bioavailability
